Test results: patent US10807992B2, “Single enantiomer antiparasitic compounds” (priority 2017, dated 2020)
Like-named read-outs stand apart in the source and are kept apart here.

Columns and labels:
[1] = test system: Aedes aegypti; assay: In vitro contact activity against adult mosquitoes (coated vial)
Protocol: (§1) Aedes aegypti (Louisiana Biologicals Inc., New Orleans, La.) eggs were allowed to hatch, close, and age between 3-5 days in an environmental chamber at 26° C., 80% humidity with light/dark cycles.
For mosquito assays, an aliquot from each compound stock was added to an acetone/triton solution to achieve the desired top doses for the study. Serial dilutions were conducted from the top dose (i.e. 50 ppm) to achieve the desired titration range for EC50 and EC90 determination. The final DMSO concentration in each test vial was 0.5%. A 459 μL aliquot of each compound formulation was transferred to a vial and vials were immediately placed on an unheated roller unit to allow for an even coating of the vial walls. The vials were loosely capped and allowed to dry for a minimum of four hours in a chemical fume hood.
(§2) For both contact and ingestion assays, five female Aedes aegypti adults were added to each vial or cage. The test vials for contact assays were held in an environmental chamber at 24° C., 80% humidity with light/dark cycles (12 hours each). The cages for mosquito ingestion assays were held in a temperature-controlled artificial feeding apparatus to allow continual access to organic bovine blood containing the desired concentration of compound. Fresh aliquots of compound-spiked bovine blood were provided daily for the duration of the study.
(§3) Mosquitoes showing no movement or mosquitoes that were knocked down were noted as dead. Results from trial 1 and trial 2 contact assays are shown in Tables 12 and 13, respectively and the results from trial 3 mosquito ingestion assay is shown in table 14.
(§4) For the mosquito contact and ingestion assays, each replicate contained 5 mosquitoes. For ease of calculation, the two replicates were added to equal a total of 10 mosquitoes.

[2] = test system: Aedes aegypti; assay: In vitro ingestion activity against adult mosquitoes (artificial feeding, bovine blood); conditions: read-out: Mortality % R1 + R2
Protocol: as §1
For mosquito ingestion tests, serial dilutions of the compound stock were performed using DMSO to achieve the desired range for EC50 and EC90 determination. An aliquot of each compound dilution was added to organic bovine blood with a final DMSO concentration of 0.5% and placed in a temperature-controlled artificial feeding container.
Compounds tested were: the C1 racemate, C1 (R) enantiomer, and the C1 (S) enantiomer. For Trial 3, the C1 (R) enantiomer and the C1 (S) enantiomer were further chiral purified to achieve >99% purity.
as §2
as §3, with “Assessment of mortality/knockdown was performed at various time points between 30 minutes and 24 hours post infestation. Mosquitoes” for “Mosquitoes”
as §4

SMILES: O=C(CC(F)(F)F)N1CC2(C1)OCc1cc(C3=NS[C@](c4cc(Cl)c(F)c(Cl)c4)(C(F)(F)F)C3)ccc12 [C1 (R) enantiomer, (R)-1-[6-[5-(3,5-dichloro-4-fluoro-phenyl)-5-(trifluoromethyl)-4H-isothiazol-3-yl]spiro[1H-isobenzofuran-3,3′-azetidine]-1′-yl]-3,3,3-trifluoro-propan-1-one]
- mortality at 0.049 µM ([1]; 0.5 h, read-out: % Mortality R1 + R2, Trial 1, contact assay, dose 0.049 μM, 0.5 Hr): 0%
- mortality at 0.2 µM ([1]; 0.5 h, read-out: % Mortality R1 + R2, Trial 1, contact assay, dose 0.20 μM, 0.5 Hr): 0%
- mortality at 0.78 µM ([1]; 0.5 h, read-out: % Mortality R1 + R2, Trial 1, contact assay, dose 0.78 μM, 0.5 Hr): 0%
- mortality at 3.125 µM ([1]; 0.5 h, read-out: % Mortality R1 + R2, Trial 1, contact assay, dose 3.125 μM, 0.5 Hr): 0%
- mortality at 12.5 µM ([1]; 0.5 h, read-out: % Mortality R1 + R2, Trial 1, contact assay, dose 12.5 μM, 0.5 Hr): 0%
- mortality at 50 µM ([1]; 0.5 h, read-out: % Mortality R1 + R2, Trial 1, contact assay, dose 50 μM, 0.5 Hr): 0%
- mortality at 0.049 µM ([1]; 0.5 h, read-out: % Mortality R1 + R2, Trial 2, contact assay, dose 0.049 μM, 0.5 Hr): 0%
- mortality at 0.2 µM ([1]; 0.5 h, read-out: % Mortality R1 + R2, Trial 2, contact assay, dose 0.20 μM, 0.5 Hr): 0%
- mortality at 0.78 µM ([1]; 0.5 h, read-out: % Mortality R1 + R2, Trial 2, contact assay, dose 0.78 μM, 0.5 Hr): 0%
- mortality at 3.125 µM ([1]; 0.5 h, read-out: % Mortality R1 + R2, Trial 2, contact assay, dose 3.125 μM, 0.5 Hr): 0%
- mortality at 12.5 µM ([1]; 0.5 h, read-out: % Mortality R1 + R2, Trial 2, contact assay, dose 12.5 μM, 0.5 Hr): 0%
- mortality at 50 µM ([1]; 0.5 h, read-out: % Mortality R1 + R2, Trial 2, contact assay, dose 50 μM, 0.5 Hr): 0%
- mortality at 0.049 µM ([1]; 1 h, read-out: % Mortality R1 + R2, Trial 1, contact assay, dose 0.049 μM, 1 hr): 0%
- mortality at 0.2 µM ([1]; 1 h, read-out: % Mortality R1 + R2, Trial 1, contact assay, dose 0.20 μM, 1 hr): 0%
- mortality at 0.78 µM ([1]; 1 h, read-out: % Mortality R1 + R2, Trial 1, contact assay, dose 0.78 μM, 1 hr): 0%
- mortality at 3.125 µM ([1]; 1 h, read-out: % Mortality R1 + R2, Trial 1, contact assay, dose 3.125 μM, 1 hr): 0%
- mortality at 12.5 µM ([1]; 1 h, read-out: % Mortality R1 + R2, Trial 1, contact assay, dose 12.5 μM, 1 hr): 0%
- mortality at 50 µM ([1]; 1 h, read-out: % Mortality R1 + R2, Trial 1, contact assay, dose 50 μM, 1 hr): 0%
- mortality at 0.049 µM ([1]; 1 h, read-out: % Mortality R1 + R2, Trial 2, contact assay, dose 0.049 μM, 1 hr): 0%
- mortality at 0.2 µM ([1]; 1 h, read-out: % Mortality R1 + R2, Trial 2, contact assay, dose 0.20 μM, 1 hr): 0%
- mortality at 0.78 µM ([1]; 1 h, read-out: % Mortality R1 + R2, Trial 2, contact assay, dose 0.78 μM, 1 hr): 0%
- mortality at 3.125 µM ([1]; 1 h, read-out: % Mortality R1 + R2, Trial 2, contact assay, dose 3.125 μM, 1 hr): 0%
- mortality at 12.5 µM ([1]; 1 h, read-out: % Mortality R1 + R2, Trial 2, contact assay, dose 12.5 μM, 1 hr): 0%
- mortality at 50 µM ([1]; 1 h, read-out: % Mortality R1 + R2, Trial 2, contact assay, dose 50 μM, 1 hr): 0%
- mortality at 0.049 µM ([1]; 6 h, read-out: % Mortality R1 + R2, Trial 1, contact assay, dose 0.049 μM, 6 hr): 0%
- mortality at 0.2 µM ([1]; 6 h, read-out: % Mortality R1 + R2, Trial 1, contact assay, dose 0.20 μM, 6 hr): 0%
- mortality at 0.78 µM ([1]; 6 h, read-out: % Mortality R1 + R2, Trial 1, contact assay, dose 0.78 μM, 6 hr): 0%
- mortality at 3.125 µM ([1]; 6 h, read-out: % Mortality R1 + R2, Trial 1, contact assay, dose 3.125 μM, 6 hr): 0%
- mortality at 12.5 µM ([1]; 6 h, read-out: % Mortality R1 + R2, Trial 1, contact assay, dose 12.5 μM, 6 hr): 0%
- mortality at 50 µM ([1]; 6 h, read-out: % Mortality R1 + R2, Trial 1, contact assay, dose 50 μM, 6 hr): 0%
- mortality at 0.049 µM ([1]; 6 h, read-out: % Mortality R1 + R2, Trial 2, contact assay, dose 0.049 μM, 6 hr): 0%
- mortality at 0.2 µM ([1]; 6 h, read-out: % Mortality R1 + R2, Trial 2, contact assay, dose 0.20 μM, 6 hr): 0%
- mortality at 0.78 µM ([1]; 6 h, read-out: % Mortality R1 + R2, Trial 2, contact assay, dose 0.78 μM, 6 hr): 0%
- mortality at 3.125 µM ([1]; 6 h, read-out: % Mortality R1 + R2, Trial 2, contact assay, dose 3.125 μM, 6 hr): 0%
- mortality at 12.5 µM ([1]; 6 h, read-out: % Mortality R1 + R2, Trial 2, contact assay, dose 12.5 μM, 6 hr): 0%
- mortality at 50 µM ([1]; 6 h, read-out: % Mortality R1 + R2, Trial 2, contact assay, dose 50 μM, 6 hr): 0%
- mortality at 0.049 µM ([1]; 12 h, read-out: % Mortality R1 + R2, Trial 1, contact assay, dose 0.049 μM, 12 hr): 0%
- mortality at 0.2 µM ([1]; 12 h, read-out: % Mortality R1 + R2, Trial 1, contact assay, dose 0.20 μM, 12 hr): 0%
- mortality at 0.78 µM ([1]; 12 h, read-out: % Mortality R1 + R2, Trial 1, contact assay, dose 0.78 μM, 12 hr): 0%
- mortality at 3.125 µM ([1]; 12 h, read-out: % Mortality R1 + R2, Trial 1, contact assay, dose 3.125 μM, 12 hr): 0%
- mortality at 12.5 µM ([1]; 12 h, read-out: % Mortality R1 + R2, Trial 1, contact assay, dose 12.5 μM, 12 hr): 0%
- mortality at 50 µM ([1]; 12 h, read-out: % Mortality R1 + R2, Trial 1, contact assay, dose 50 μM, 12 hr): 30%
- mortality at 0.049 µM ([1]; 12 h, read-out: % Mortality R1 + R2, Trial 2, contact assay, dose 0.049 μM, 12 hr): 0%
- mortality at 0.2 µM ([1]; 12 h, read-out: % Mortality R1 + R2, Trial 2, contact assay, dose 0.20 μM, 12 hr): 10%
- mortality at 0.78 µM ([1]; 12 h, read-out: % Mortality R1 + R2, Trial 2, contact assay, dose 0.78 μM, 12 hr): 10%
- mortality at 3.125 µM ([1]; 12 h, read-out: % Mortality R1 + R2, Trial 2, contact assay, dose 3.125 μM, 12 hr): 0%
- mortality at 12.5 µM ([1]; 12 h, read-out: % Mortality R1 + R2, Trial 2, contact assay, dose 12.5 μM, 12 hr): 0%
- mortality at 50 µM ([1]; 12 h, read-out: % Mortality R1 + R2, Trial 2, contact assay, dose 50 μM, 12 hr): 20%
- mortality at 0.049 µM ([1]; 24 h, read-out: % Mortality R1 + R2, Trial 1, contact assay, dose 0.049 μM, 24 hr): 0%
- mortality at 0.2 µM ([1]; 24 h, read-out: % Mortality R1 + R2, Trial 1, contact assay, dose 0.20 μM, 24 hr): 0%
- mortality at 0.78 µM ([1]; 24 h, read-out: % Mortality R1 + R2, Trial 1, contact assay, dose 0.78 μM, 24 hr): 0%
- mortality at 3.125 µM ([1]; 24 h, read-out: % Mortality R1 + R2, Trial 1, contact assay, dose 3.125 μM, 24 hr): 0%
- mortality at 12.5 µM ([1]; 24 h, read-out: % Mortality R1 + R2, Trial 1, contact assay, dose 12.5 μM, 24 hr): 0%
- mortality at 50 µM ([1]; 24 h, read-out: % Mortality R1 + R2, Trial 1, contact assay, dose 50 μM, 24 hr): 100%
- mortality at 0.049 µM ([1]; 24 h, read-out: % Mortality R1 + R2, Trial 2, contact assay, dose 0.049 μM, 24 hr): 0%
- mortality at 0.2 µM ([1]; 24 h, read-out: % Mortality R1 + R2, Trial 2, contact assay, dose 0.20 μM, 24 hr): 0%
- mortality at 0.78 µM ([1]; 24 h, read-out: % Mortality R1 + R2, Trial 2, contact assay, dose 0.78 μM, 24 hr): 10%
- mortality at 3.125 µM ([1]; 24 h, read-out: % Mortality R1 + R2, Trial 2, contact assay, dose 3.125 μM, 24 hr): 10%
- mortality at 12.5 µM ([1]; 24 h, read-out: % Mortality R1 + R2, Trial 2, contact assay, dose 12.5 μM, 24 hr): 60%
- mortality at 50 µM ([1]; 24 h, read-out: % Mortality R1 + R2, Trial 2, contact assay, dose 50 μM, 24 hr): 100%
- mortality at 0.049 µM ([1]; 48 h, read-out: % Mortality R1 + R2, Trial 1, contact assay, dose 0.049 μM, 48 hr): 10%
- mortality at 0.2 µM ([1]; 48 h, read-out: % Mortality R1 + R2, Trial 1, contact assay, dose 0.20 μM, 48 hr): 40%
- mortality at 0.78 µM ([1]; 48 h, read-out: % Mortality R1 + R2, Trial 1, contact assay, dose 0.78 μM, 48 hr): 20%
- mortality at 3.125 µM ([1]; 48 h, read-out: % Mortality R1 + R2, Trial 1, contact assay, dose 3.125 μM, 48 hr): 30%
- mortality at 12.5 µM ([1]; 48 h, read-out: % Mortality R1 + R2, Trial 1, contact assay, dose 12.5 μM, 48 hr): 50%
- mortality at 50 µM ([1]; 48 h, read-out: % Mortality R1 + R2, Trial 1, contact assay, dose 50 μM, 48 hr): 100%
- mortality at 0.049 µM ([1]; 48 h, read-out: % Mortality R1 + R2, Trial 2, contact assay, dose 0.049 μM, 48 hr): 20%
- mortality at 0.2 µM ([1]; 48 h, read-out: % Mortality R1 + R2, Trial 2, contact assay, dose 0.20 μM, 48 hr): 60%
- mortality at 0.78 µM ([1]; 48 h, read-out: % Mortality R1 + R2, Trial 2, contact assay, dose 0.78 μM, 48 hr): 10%
- mortality at 3.125 µM ([1]; 48 h, read-out: % Mortality R1 + R2, Trial 2, contact assay, dose 3.125 μM, 48 hr): 20%
- mortality at 12.5 µM ([1]; 48 h, read-out: % Mortality R1 + R2, Trial 2, contact assay, dose 12.5 μM, 48 hr): 100%
- mortality at 50 µM ([1]; 48 h, read-out: % Mortality R1 + R2, Trial 2, contact assay, dose 50 μM, 48 hr): 100%
- mortality at 0.049 ppm ([2]; 24 h): 40%
- mortality at 0.2 ppm ([2]; 24 h): 30%
- mortality at 0.78 ppm ([2]; 24 h): 75%
- mortality at 3.125 ppm ([2]; 24 h): 100%
- mortality at 12.5 ppm ([2]; 24 h): 100%
- mortality at 50 ppm ([2]; 24 h): 100%
- mortality at 0.049 ppm [2]: 10%
- mortality at 0.2 ppm [2]: 10%
- mortality at 0.78 ppm [2]: 0%
- mortality at 3.125 ppm [2]: 11.1%
- mortality at 12.5 ppm [2]: 100%
- mortality at 50 ppm [2]: 88.9%
